Test results reported in article PMC11396062, “The n-Butanol Extract Obtained from the Inner Bark of Tabebuia rosea (Bertol.) DC, Specioside, and Catalposide Induce Leukemia Cell Apoptosis in the Presence of Apicidin” (Molecules, 2024).
In brackets after ≈: the same amount, converted by molar mass.

Legend:
[1] = tested on: Peripheral blood mononuclear cells (PBMCs); assay: MTT cell viability assay, PBMC (normal cells); type: cell-based; conditions: Homo sapiens, n = 3
Description: Jurkat and THP-1 cell lines were purchased from the American Type Culture Collection (ATCC, Rockville, MD, USA); Jurkat is a human lymphocytic cell line representing acute T-cell leukemia, and THP-1 is a monocytic cell line that represents acute myelogenous leukemia (AML). Jurkat and THP-1 cells were maintained in RPMI 1640 medium (Sigma) supplemented with 10% heat-inactivated fetal bovine serum (FBS) (Gibco Cat No. 16140071, Waltham, MA USA), 200 μg/mL penicillin, 200 μg/mL streptomycin, 400 μg/mL neomycin (GIBCO, Cat No. 15640-055), 5 μg/mL amphotericin, and 1 mM sodium pyruvate (all from Sigma Chemical Co., Saint Louis, MO, USA; Cat Nos. A9528-50 MG, M7522-100ML, and S8636-100ML, respectively). The cells were maintained at 37 °C in a humidified atmosphere with 5% CO2. The culture medium was exchanged with fresh medium every 2–3 days. Peripheral blood mononuclear cells (PBMCs) were isolated from normal human venous blood. Further, 10 milliliters of human blood was mixed with 10 mL of RPMI-1640 containing 50 µL of heparin and gradually poured over 1 mL of HISTOPAQUE®-1119 (Sigma). The plasma was removed by centrifugation at 3000 rpm for 30 min. The peripheral blood mononuclear cell-containing layer was collected with a pipette and diluted in 4 mL of PBS. PBMCs were harvested by centrifugation at 1500 rpm for 10 min at room temperature, resuspended in RPMI-1640 with 10% FBS, and incubated at 37 °C in 5% CO2 humidified air.
Cell viability was determined by measuring the mitochondrial activity of live cells via the metabolism of the tetrazolium substrate 3-(4,5-dimethylthiazol-2-yl)-2,5-diphenyl tetrazolium bromide (MTT) and converting it to purple formazan crystals. Briefly, the cells (2 × 10^4 cells/well) were treated with 25, 50, 100, 200, or 400 μg/mL extract diluted in DMSO (at a final concentration of 0.5%) and incubated for 12, 24, or 48 h. Catalposide and specioside were tested at concentrations of 20, 50, and 100 μg/mL for 12, 24, and 48 h. For apicidin, 0.5, 1, and 2 μM apicidin were tested for 24 and 48 h. Doxorubicin was used as a reference standard drug (positive control). After treatment, the medium was discarded; 200 μL of RPMI 1640 medium without phenol red containing 0.5 mg/mL MTT (Sigma Chemical Co., Saint Louis, MO, USA; Cat. No. M2128-500MG) was then added to each well. The plates were incubated for four hours at 37 °C with 5% CO2 in a humidified atmosphere. The medium was discarded, and 100 μL of DMSO was added to solubilize the formazan crystals. The absorbance was measured with an ELISA microplate reader at 492 nm (ELx800; BioTek Instruments Inc., Winooski, VT, USA). The percentage of viable cells was calculated on the basis of the nontreated control (taken as 100%). The IC50 (concentration causing a 50% reduction in cellular viability) values for all the tested compounds were evaluated in Excel using the nonlinear regression curve method. Three independent assays were performed, each in triplicate.

BAX = assay: RT-qPCR BAX mRNA expression; type: cell-based, human; conditions: THP-1, catalposide 44 and 66 μg/mL, specioside 20, 40 and 60 μg/mL
Description: After treatment, mRNA extraction was performed using the RNeasy Plus Mini Kit (Qiagen, Germantown, MD, USA; Cat No. 74134). The mRNA was quantified with a NanoDrop 2000c (Thermo Fisher Scientific, Waltham, MA, USA). The expression of the MAPK14 (gene encoding p38), BCL2, and BAX genes was evaluated by qRT–PCR and quantified with the 2^−ΔΔCt method in the Applied Biosystems StepOnePlus Real-Time PCR System (Applied Biosystems, Foster City, CA, USA), which uses predesigned TaqMan Gene Expression Assays (codes […], Hs00608023_m1, and Hs00180269_m1, respectively) (Applied Biosystems, Foster City, CA, USA) and the TaqMan® RNA-to-CT TM 1-Step Kit (Applied Biosystems, Foster City, CA, USA, Cat No. 4392653). The reaction mixture was incubated at 48 °C for 15 min and 95 °C for 10 min and then cycled (40 cycles) at 95 °C for 15 s and 60 °C for 1 min. GAPDH was used as an endogenous control.

p38 MAPK = assay: Western blot p38 phosphorylation; type: cell-based, human; conditions: THP-1, APC pretreatment, p < 0.001
Description: THP-1 cells were seeded in 24-well plates (5 × 10^5 cells/well), and after 24 h of incubation, they were pretreated with 1 µM apicidin for 24 h and then treated with different concentrations of the n-butanol extract, catalposide, and specioside for 24 h. After treatment, the cells were lysed with an Abcam protein extraction kit (ab270054), and a phosphatase inhibitor cocktail (ab201115) was added. The supernatants of the cell extracts were quantified with a BCA protein assay (Thermo Scientific Pierce #23227, Waltham, MA, USA). Equivalent amounts of protein were electrophoresed on 10% SDS polyacrylamide gels and then electroblotted onto 0.45 μm polyvinylidene difluoride (PVDF) membranes (GE Healthcare, Chicago, IL, USA). […] The signals were detected using SuperSignal™ West Pico PLUS Chemiluminescent Substrate (Thermo Scientific Pierce cat 34577) and analyzed with a ChemiDoc XRS+ system (Bio-Rad, Hercules, CA, USA). The density of each band was measured using ImageJ software V. 1.53n, 7 November 2021 (NIH, Bethesda, MD, USA), and the protein levels were normalized to the GAPDH levels. The data are expressed as the means of three independent experiments. […]

Q: O=C(O[C@H]1[C@@H]2C=CO[C@@H](O[C@@H]3O[C@H](CO)[C@@H](O)[C@H](O)[C@H]3O)[C@@H]2[C@@]2(CO)O[C@@H]12)c1ccc(O)cc1 [Catalposide, catalposide] was tested. Which IC50 ([1]; 12 h) did it give?
A: Its IC50 is 126 ± 2.8 µg/mL (≈ 260 µM).

Q: What about the IC50 ([1]; 24 h) of the same compound?
A: Its IC50 is 87.7 ± 3.1 µg/mL (≈ 182 µM).

Q: And the IC50 ([1]; 48 h)?
A: Its IC50 is 43.4 ± 3.4 µg/mL (≈ 90 µM).

Q: What about the “expression of Bax mRNA with APC pretreatment” value (BAX) of the same compound?
A: Its value is “increased”.

Q: What about the “phosphorylation of p38 in cells pretreated with APC compared with control” value (p38 MAPK) of the same compound?
A: The value was “significantly increased”.

Q: What does the source list for O=C(/C=C/c1ccc(O)cc1)O[C@H]1[C@@H]2C=CO[C@@H](O[C@@H]3O[C@H](CO)[C@@H](O)[C@H](O)[C@H]3O)[C@@H]2[C@@]2(CO)O[C@@H]12 [Specioside]?
A: IC50 ([1]; 12 h): 165 ± 3.1 µg/mL (≈ 325 µM); IC50 ([1]; 24 h): 70.7 ± 3.7 µg/mL (≈ 139 µM); IC50 ([1]; 48 h): 54.2 ± 3.7 µg/mL (≈ 107 µM); expression of Bax mRNA with APC pretreatment (BAX): increased; phosphorylation of p38 in cells pretreated with APC compared with control (p38 MAPK): significantly increased
